The results in this text go back to patent US10844062B2, “Pyridine derivative inhibiting RAF kinase and vascular endothelial growth factor receptor, method for preparing same, pharmaceutical composition containing same, and use thereof” (SAMJIN PHARMACEUTICAL CO., LTD., priority 2016, dated 2020).

Each structure is given as a SMILES string. pIC50: −log10 of the molar value. Where two headings read alike, the source gives them in different places.

One assay addresses B-Raf (Homo sapiens (Human), UniProt P15056). In words: Raf kinase inhibitory activity (Raf/MEK1/MAPK2 cascade, MBP phosphorylation, 32P). Format: biochemical. As for the experimental part:
(§1) In order to examine the inhibitory activities of the compounds of the present invention against Raf kinases (B-Raf, C-Raf, B-Raf^V600E), the following experiment was performed.
(§2) (1) Consecutive Signal Transduction Reaction
(§3) To a centrifugation tube, 20 μl of a dilution solvent (20 mM MOPS, pH 7.2, 25 mM (3-glycerol phosphate, 5 mM EGTA, 1 mM sodium orthovanadate, 1 mM dithiothreitol) and 20 μl of a Mg/ATP mixture (500 μM ATP and 75 mM magnesium chloride) were added. Then, each of the derivative compounds of formula 1 was added. As a control, 1 ng of activated raf, 0.4 ng of inactivated MEK1 and 1 μg of inactivated MAPK2 were added without adding Example compounds. The solutions in the tube were concentrated at the bottom of the tube by centrifugation, and then allowed to react at 30° C. for 30 minutes, and 4 μl of the mixture solution was taken and used in the next experimental step.
(§4) (2) Phosphorylation of Substrate Protein MBP by MAPK2
(§5) To 4 μl of the mixture solution taken in (1), 10 μl of a dilution solvent, 20 μg of MBP as a substrate, and 10 μl of diluted [γ-32P]ATP (1 μCi/μL) were added. The solutions in the tube were concentrated at the bottom of the tube by centrifugation, and then allowed to react at 30° C. for 30 minutes. 25 μl of the reaction solution was carefully placed on the center of 2 cm×2 cm P81 filter paper for 30 seconds. Next, the filter paper was washed three times with 0.75% phosphoric acid solution for 10 minutes each time and washed once with acetone for 5 minutes. Next, the filter paper was transferred into a scintillation vial, and 5 ml of a scintillation cocktail was added thereto. Raf activity inhibition rate (IC50) was measured by reading the radioactivity with a scintillation counter in comparison with the control.

The next assay concerns the target B-Raf V600E (Homo sapiens (Human), UniProt P15056, V600E). The assay is described as above. Format: biochemical. As to the method: as §1, §2, §3, §4, §5
In another assay the target is C-Raf (Homo sapiens (Human), UniProt P04049). The description is as above. The class given is biochemical. As for the experimental part:
as §1, §2, §3, §4, §5

Another assay relates to LS513 KRAS G12V (colon). In words: MTT assay. Format: cell-based. Conditions: Homo sapiens, LS-513, 72 h, 3 days incubation, read-out: MTT assay IC50 KRAS mutant (Colon) LS513 KRAS G12V. The method in brief: (§6)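 Cells were seeded at line-dependent density and stabilised overnight at 37 °C, then exposed to compounds for 3 days at 37 °C. MTT was then added for 2 h and the formazan dissolved in DMSO.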
On the technique in general: Tetrazolium dyes change colour on reduction, which living cells bring about.

Assay [1] deals with LS513 human colorectal cancer cell line xenograft. In words: Antitumor effect on human colorectal cancer LS513 cell line xenograft. The class given is in vivo, Balb/c nu/nu nude mice. Conditions: oral, twice a day, 60 mg/kg or 30 mg/kg (dose not specified per compound), 14 days. The source says:
In this experiment, 5 to 6-week-old female Balb/c nu/nu nude mice (weighed 18 to 20 g) were used. The mice were provided from Nara Biotech Co., Ltd. During the experiment, all the animals were housed on a mouse constant temperature/constant humidity shelf (Individually Ventilated Cages System, LAB & BIO).
Each cage (37.2 cm length×19.2 cm width×13.1 cm height) was sterilized with a sterilizer, and eight mice were received in each cage. The mice were maintained in a hygienic environment controlled to a temperature of 20 to 24° C. and a humidity of 40 to 70% with a 12-hr light/12-hr dark cycle. The mice were allowed to access sterilized feed and drinking water ad libitum. The care and treatment of these animals were carried out according to the Laboratory Animal Care Guidelines of Samjin Pharmaceutical Co., Ltd.
The mice were acclimated to the housing facility for 1 week, and then 0.1 mL of a cell suspension containing 1×10^7 cells was injected subcutaneously into the right flank of each mouse. After cell transplantation, the volume of the formed tumor was measured, and mice with formed tumors having a volume of 150 mm^3 or more were randomly divided into groups (each consisting of 7 to 8 animals) for treatment with the test compounds and a control. […] Administration of the drugs was continued for 14 days. […] At 3-day intervals from the starting day of the administration, the long axis and short axis of the tumor were measured with digital vernier calipers, and the tumor volume was calculated using the following equation and recorded: Tumor volume (TV)=Long axis×short axis^2/2.
Tumor growth inhibition for absolute tumor volume was calculated using the following equation. In the following equation, V0 is the tumor volume on the first day of drug administration (day 0), and Vt is the tumor volume after last drug administration.
Background: In xenograft studies the graft and the host belong to different species.

The subject of assay [2] is HCT-116 KRAS G13D (colon). Kind of assay: MTT assay. Format: cell-based. Particulars: Homo sapiens, HCT-116, 72 h; Table 5; 3 days incubation; read-out: MTT assay IC50 KRAS mutant (Colon) HCT-116 KRAS G13D. The method in brief:
as §6

Another assay deals with HUVEC (VEGF). In words: MTT assay. Format: cell-based. Conditions: Homo sapiens, 72 h, Table 5, 3 days incubation. A digest of the protocol: as §6
A further assay relates to SW620 KRAS G12V (colon). In words: MTT assay. Format: cell-based. Conditions: Homo sapiens, SW-620, 72 h; Table 5; 3 days incubation; read-out: MTT assay IC50 KRAS mutant (Colon) SW620 KRAS G12V. The method in brief: as §6
The test system of another assay is WiDR BRAF V600E (colon). Kind of assay: MTT assay. The class given is cell-based. Conditions: Homo sapiens, 72 h, Table 5, 3 days incubation, read-out: MTT assay IC50 BRAF mutant (Colon) WiDR BRAF V600E. The method in brief:
as §6

Assay [3] relates to LS513 human colorectal cancer cell line xenograft. In words: Antitumor effect on human colorectal cancer LS513 cell line xenograft. The class given is in vivo, Balb/c nu/nu nude mice. Conditions: 50 mg/kg, oral, once a day, 13 days.

Chain of B-Raf V600E (P15056 whole entry V600E): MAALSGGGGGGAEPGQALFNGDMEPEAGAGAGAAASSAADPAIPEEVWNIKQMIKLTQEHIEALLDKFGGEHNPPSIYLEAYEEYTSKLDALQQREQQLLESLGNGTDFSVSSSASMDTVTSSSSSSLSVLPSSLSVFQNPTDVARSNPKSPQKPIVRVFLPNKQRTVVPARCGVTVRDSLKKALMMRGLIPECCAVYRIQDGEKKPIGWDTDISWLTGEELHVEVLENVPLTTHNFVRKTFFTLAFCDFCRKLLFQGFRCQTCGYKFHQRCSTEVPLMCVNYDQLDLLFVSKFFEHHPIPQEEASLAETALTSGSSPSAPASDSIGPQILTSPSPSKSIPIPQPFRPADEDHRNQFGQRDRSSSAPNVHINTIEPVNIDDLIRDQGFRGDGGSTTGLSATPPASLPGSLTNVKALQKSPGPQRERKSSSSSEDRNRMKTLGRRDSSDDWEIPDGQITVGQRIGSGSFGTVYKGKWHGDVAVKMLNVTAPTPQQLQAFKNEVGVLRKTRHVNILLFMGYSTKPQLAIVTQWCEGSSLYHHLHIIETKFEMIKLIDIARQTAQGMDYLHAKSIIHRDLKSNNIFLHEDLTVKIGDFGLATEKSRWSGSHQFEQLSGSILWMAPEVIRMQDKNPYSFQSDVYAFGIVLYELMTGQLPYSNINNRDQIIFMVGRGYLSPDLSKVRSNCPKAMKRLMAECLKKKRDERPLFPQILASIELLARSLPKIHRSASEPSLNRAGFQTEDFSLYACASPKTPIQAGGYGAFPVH
Chain of B-Raf (P15056 whole entry): as the sequence (P15056 whole entry V600E) above, with E600V counted along it
Chain of C-Raf (P04049 whole entry): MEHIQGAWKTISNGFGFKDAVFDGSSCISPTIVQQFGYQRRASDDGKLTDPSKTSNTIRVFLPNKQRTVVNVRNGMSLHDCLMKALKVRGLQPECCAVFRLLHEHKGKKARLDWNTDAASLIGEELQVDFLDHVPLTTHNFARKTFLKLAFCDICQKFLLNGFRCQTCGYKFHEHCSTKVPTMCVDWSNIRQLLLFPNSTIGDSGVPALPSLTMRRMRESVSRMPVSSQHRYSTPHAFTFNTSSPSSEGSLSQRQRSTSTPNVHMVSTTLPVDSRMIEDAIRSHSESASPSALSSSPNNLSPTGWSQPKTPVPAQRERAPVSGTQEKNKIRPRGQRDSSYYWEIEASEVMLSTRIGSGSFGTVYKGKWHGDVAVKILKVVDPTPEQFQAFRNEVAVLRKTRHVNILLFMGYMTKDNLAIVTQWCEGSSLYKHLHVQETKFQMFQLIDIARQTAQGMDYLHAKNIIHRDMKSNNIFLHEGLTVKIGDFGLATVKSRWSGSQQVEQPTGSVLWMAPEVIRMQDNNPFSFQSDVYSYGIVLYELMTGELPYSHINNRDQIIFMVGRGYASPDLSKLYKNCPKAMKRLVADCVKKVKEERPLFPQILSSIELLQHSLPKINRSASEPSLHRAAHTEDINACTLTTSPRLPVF

For `CC(C)(C#N)c1cc(F)cc(C(=O)Nc2cc(Nc3ncccc3-c3ncnc4[nH]cnc34)ccc2F)c1` [Example 33, N-(5-(3-(9H-Purin-6-Yl)Pyridin-2-Ylamino)-2-Fluorophenyl)-3-(2-Cyanopropan-2-Yl)-5-Fluorobenzamide], the pIC50 is 7.03 against B-Raf, 7.48 on B-Raf V600E, 7.62 against C-Raf and 6.70 in the assay on LS513 KRAS G12V (colon) (Table 4). Also, in assay [1], the “antitumor effect (tumor growth inhibition) compared to the vehicle control” value was found to be 96.0%.

Turning to `Cc1cn(-c2cc(NC(=O)Nc3ccc(F)c(Nc4ncccc4-c4ncnc5[nH]cnc45)c3F)cc(C(F)(F)F)c2)cn1` [Example 59, 1-(3-(3-(9H-Purin-6-Yl)Pyridin-2-Ylamino)-2,4-Difluorophenyl)-3-(3-(4-Methyl-1H-Imidazol-1-Yl)-5-(Trifluoromethyl)Phenyl)Urea], the negative-log IC50 (pIC50) with LS513 KRAS G12V (colon) (Table 4) was 5.67. Besides, the “antitumor effect (tumor growth inhibition) compared to the vehicle control” value in [1] came to 83.51%.

`CCN1CCN(Cc2ccc(NC(=O)Nc3ccc(F)c(Nc4ncccc4-c4ncnc5[nH]cnc45)c3F)cc2C(F)(F)F)CC1` [Example 60, 1-(3-(3-(9H-Purin-6-Yl)Pyridin-2-Ylamino)-2,4-Difluorophenyl)-3-(4-((4-Ethylpiperazin-1-Yl)Methyl)-3-(Trifluoromethyl)Phenyl)Urea]: in the assay on LS513 KRAS G12V (colon) (Table 4), the pIC50 was below 5.00. Further, the “antitumor effect (tumor growth inhibition) compared to the vehicle control” value in [1] is on record as 69.06%.

Regarding `COc1cc(C(=O)Nc2cc(Nc3ncccc3-c3ncnc4[nH]cnc34)ccc2F)cc(C(F)(F)F)c1` [Example 63, N-2-Fluoro-5-[3-(9H-Purin-6-Yl)Pyridin-2-Ylamino)Phenyl-3-Methoxy-5-(Trifluoromethyl)Benzamide], the pIC50 in the assay on LS513 KRAS G12V (colon) (Table 4) is 6.16. In addition, the “antitumor effect (tumor growth inhibition) compared to the vehicle control” value in assay [1] stood at 57.9%.

Take `O=C(Nc1cc(Nc2ncccc2-c2ncnc3[nH]cnc23)ccc1F)c1cc(C(F)(F)F)cc(C(F)(F)F)c1` [Example 65, N-2-Fluoro-5-[3-(9H-Purin-6-Yl)Pyridin-2-Ylamino)Phenyl-3,5-Bis(Trifluoromethyl)Benzamide]: the negative logarithm of the IC50 (pIC50) against B-Raf was 6.48; against B-Raf V600E it was 6.73; against C-Raf, 6.59; in assay [2], 6.68; with HUVEC (VEGF), 6.07; in the assay with LS513 KRAS G12V (colon) (Table 4), 7.00. Further, the figures for the negative-log IC50 (pIC50) in the assay on LS513 KRAS G12V (colon) (Table 5), with SW620 KRAS G12V (colon) and in the assay with WiDR BRAF V600E (colon) were 6.49, 6.15 and 6.61, respectively. Moreover, in assay [3], the “antitumor effect (tumor growth inhibition)” value came to 95.42%.

As to `Cc1cc(C(=O)Nc2cc(Nc3ncccc3-c3ncnc4[nH]cnc34)ccc2F)cc(C(F)(F)F)c1` [Example 139, N-5-[(3-(9H-purin-6-yl)pyridin-2-yl)amino]-2-fluorophenyl-3-methyl-5-(trifluoromethyl)benzamide], the negative logarithm of the IC50 (pIC50) with LS513 KRAS G12V (colon) (Table 4) was 7.00; with LS513 KRAS G12V (colon) (Table 5), 7.02; in the assay on WiDR BRAF V600E (colon), 6.94. Moreover, in [3], the “antitumor effect (tumor growth inhibition)” value is reported as 91.04%.

`CC(C)(C#N)c1cc(C(=O)Nc2cc(Nc3ncccc3-c3ncnc4[nH]cnc34)ccc2F)cc(C(F)(F)F)c1` [Example 154, N-5-[(3-(9H-purin-6-yl)pyridin-2-yl)amino]-2-fluorophenyl-3-(2-cyanopropan-2-yl)-5-(trifluoromethyl)benzamide]: the pIC50 is 6.49 with LS513 KRAS G12V (colon) (Table 4), 6.49 with LS513 KRAS G12V (colon) (Table 5) and 7.01 in the assay with WiDR BRAF V600E (colon). The “antitumor effect (tumor growth inhibition)” value in assay [3] is reported as 83.19%.

In general, pIC50 refers to the negative decadic logarithm of the IC50, by convention in mol/L.
